Assay results taken from US8450313B2, “2,3-diaryl- or heteroaryl-substituted 1,1,1-trifluoro-2-hydroxypropyl compounds” (Hoffmann-La Roche Inc., priority 2009, dated 2013).

Target: T1, full length human recombinant glucocorticoid receptor (Homo sapiens, UniProt P04150)
T1 construct: It contains some partially purified full length human recombinant glucocorticoid receptor; purchased Panvera/Invitrogen PV4302
T1 sequence (P04150 1-777): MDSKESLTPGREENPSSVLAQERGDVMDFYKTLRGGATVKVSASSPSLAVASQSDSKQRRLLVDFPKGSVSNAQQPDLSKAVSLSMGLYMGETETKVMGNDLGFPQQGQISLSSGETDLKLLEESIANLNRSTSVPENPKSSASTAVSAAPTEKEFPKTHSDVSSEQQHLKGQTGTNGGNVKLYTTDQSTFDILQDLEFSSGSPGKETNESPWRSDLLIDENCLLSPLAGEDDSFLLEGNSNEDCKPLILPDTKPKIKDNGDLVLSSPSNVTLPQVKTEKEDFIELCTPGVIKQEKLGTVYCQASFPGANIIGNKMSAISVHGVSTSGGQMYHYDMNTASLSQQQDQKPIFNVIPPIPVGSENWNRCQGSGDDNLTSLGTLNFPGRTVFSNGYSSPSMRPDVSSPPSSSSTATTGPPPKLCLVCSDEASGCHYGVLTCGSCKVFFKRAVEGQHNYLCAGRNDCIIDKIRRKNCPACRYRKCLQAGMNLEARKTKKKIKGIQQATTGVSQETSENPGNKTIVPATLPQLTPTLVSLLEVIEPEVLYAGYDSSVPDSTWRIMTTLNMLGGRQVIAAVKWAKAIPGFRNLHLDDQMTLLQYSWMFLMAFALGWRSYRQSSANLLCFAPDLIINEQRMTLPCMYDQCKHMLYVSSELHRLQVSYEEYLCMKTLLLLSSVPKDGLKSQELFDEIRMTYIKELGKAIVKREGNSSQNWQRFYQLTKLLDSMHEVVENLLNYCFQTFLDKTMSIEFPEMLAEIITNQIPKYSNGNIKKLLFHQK
Test: Glucocorticoid Receptor Binding Assay (Glucocorticoid Receptor Competitor Assay far red kit, fluorescence polarization)
Details: competition with fluorescent GR ligand Fluormone GS Far Red, 3 hours at 22° C., pH 7.4; Ki calculated from IC50 by Cheng-Prusoff
Procedure, shortened: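 Fluorescence polarization competition with partially purified full-length human recombinant GR, stabilizing peptide and Fluormone GS Far Red tracer in screening buffer pH 7.4; 3 hours at 22° C in the dark, read at 610–660 nm. IC50 from sigmoidal fit; Ki by Cheng-Prusoff.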

Ki [nM] | SMILES
1.8 | COC(=O)c1cnc(Oc2ccc([C@@H](C)[C@@](O)(c3ccc4oc(=O)n(C)c4c3)C(F)(F)F)c(Cl)c2)c(Cl)c1 (relative stereo) [Example 175, 5-Chloro-6-{3-chloro-4-[3,3,3-trifluoro-2-hydroxy-1-methyl-2-(3-methyl-2-oxo-2,3-dihydro-benzooxazol-5-yl)-propyl]-phenoxy}-nicotinic acid methyl ester]
1.7 | COC(=O)c1ccc(Oc2ccc([C@@H](C)[C@@](O)(c3ccc4oc(=O)n(C)c4c3)C(F)(F)F)c(Cl)c2)cc1F (relative stereo) [Example 176, 4-{3-Chloro-4-[3,3,3-trifluoro-2-hydroxy-1-methyl-2-(3-methyl-2-oxo-2,3-dihydro-benzooxazol-5-yl)-propyl]-phenoxy}-2-fluoro-benzoic acid methyl ester]
114 | C[C@H](c1ccc(-c2ccc(F)c(C(=O)O)c2)cc1Cl)[C@@](O)(c1ccc2c(c1)oc(=O)n2C)C(F)(F)F (relative stereo) [Example 178, 3′-Chloro-4-fluoro-4′-[3,3,3-trifluoro-2-hydroxy-1-methyl-2-(3-methyl-2-oxo-2,3-dihydro-benzooxazol-6-yl)-propyl]-biphenyl-3-carboxylic acid]
3 | COC(=O)c1cnc(Oc2ccc([C@@H](C)[C@@](O)(c3ccc4oc(=O)n(C)c4c3)C(F)(F)F)c(Cl)c2)cc1Cl (relative stereo) [Example 183, 4-Chloro-6-{3-chloro-4-[3,3,3-trifluoro-2-hydroxy-1-methyl-2-(3-methyl-2-oxo-2,3-dihydro-benzooxazol-5-yl)-propyl]-phenoxy}-nicotinic acid methyl ester]
0.8 | C[C@H](c1ccc(Oc2ccc(C(=O)O)c(Cl)n2)cc1Cl)[C@@](O)(c1ccc2oc(=O)n(C)c2c1)C(F)(F)F (relative stereo) [Example 184, 2-Chloro-6-{3-chloro-4-[3,3,3-trifluoro-2-hydroxy-1-methyl-2-(3-methyl-2-oxo-2,3-dihydro-benzooxazol-5-yl)-propyl]-phenoxy}-nicotinic acid]
0.7 | C[C@H](c1ccc(Oc2cc(Cl)c(C(=O)O)cn2)cc1Cl)[C@@](O)(c1ccc2oc(=O)n(C)c2c1)C(F)(F)F (relative stereo) [Example 185, 4-Chloro-6-{3-chloro-4-[3,3,3-trifluoro-2-hydroxy-1-methyl-2-(3-methyl-2-oxo-2,3-dihydro-benzooxazol-5-yl)-propyl]-phenoxy}-nicotinic acid]
1.4 | COC(=O)c1cncc(-c2ccc([C@@H](C)[C@@](O)(c3ccc4oc(=O)n(C)c4c3)C(F)(F)F)c(Cl)c2)c1 (relative stereo) [Example 186, 5-{3-Chloro-4-[3,3,3-trifluoro-2-hydroxy-1-methyl-2-(3-methyl-2-oxo-2,3-dihydro-benzooxazol-5-yl)-propyl]-phenyl}-nicotinic acid methyl ester]
2.1 | COC(=O)c1ccc(-c2ccc([C@@H](C)[C@@](O)(c3ccc4oc(=O)n(C)c4c3)C(F)(F)F)c(Cl)c2)cn1 (relative stereo) [Example 187, 5-{3-Chloro-4-[3,3,3-trifluoro-2-hydroxy-1-methyl-2-(3-methyl-2-oxo-2,3-dihydro-benzooxazol-5-yl)-propyl]-phenyl}-pyridine-2-carboxylic acid methyl ester]
2.2 | CCOC(=O)c1cccc(-c2ccc([C@@H](C)[C@@](O)(c3ccc4oc(=O)n(C)c4c3)C(F)(F)F)c(Cl)c2)n1 (relative stereo) [Example 188, 6-{3-Chloro-4-[3,3,3-trifluoro-2-hydroxy-1-methyl-2-(3-methyl-2-oxo-2,3-dihydro-benzooxazol-5-yl)-propyl]-phenyl}-pyridine-2-carboxylic acid ethyl ester]
6.6 | C[C@H](c1ccc(-c2ccc(C(=O)O)nc2)cc1Cl)[C@@](O)(c1ccc2oc(=O)n(C)c2c1)C(F)(F)F (relative stereo) [Example 189, 5-{3-Chloro-4-[3,3,3-trifluoro-2-hydroxy-1-methyl-2-(3-methyl-2-oxo-2,3-dihydro-benzooxazol-5-yl)-propyl]-phenyl}-pyridine-2-carboxylic acid]
3 | C[C@H](c1ccc(-c2cccc(C(=O)O)n2)cc1Cl)[C@@](O)(c1ccc2oc(=O)n(C)c2c1)C(F)(F)F (relative stereo) [Example 190, 6-{3-Chloro-4-[3,3,3-trifluoro-2-hydroxy-1-methyl-2-(3-methyl-2-oxo-2,3-dihydro-benzooxazol-5-yl)-propyl]-phenyl}-pyridine-2-carboxylic acid]
1.4 | C[C@H](c1ccc(-c2cncc(C(=O)O)c2)cc1Cl)[C@@](O)(c1ccc2oc(=O)n(C)c2c1)C(F)(F)F (relative stereo) [Example 191, 5-{3-Chloro-4-[3,3,3-trifluoro-2-hydroxy-1-methyl-2-(3-methyl-2-oxo-2,3-dihydro-benzooxazol-5-yl)-propyl]-phenyl}-nicotinic acid]
0.9 | C[C@H](c1ccc(Br)cc1C(F)(F)F)[C@@](O)(c1ccc2oc(=O)n(C)c2c1)C(F)(F)F (relative stereo) [Example 193, 5-[2-(4-Bromo-2-trifluoromethyl-phenyl)-1-hydroxy-1-trifluoromethyl-propyl]-3-methyl-3H-benzooxazol-2-one]
0.7 | C[C@H](c1ccc(-c2cncnc2)cc1Cl)[C@@](O)(c1ccc2oc(=O)n(C)c2c1)C(F)(F)F (relative stereo) [Example 194, 5-[2-(2-Chloro-4-pyrimidin-5-yl-phenyl)-1-hydroxy-1-trifluoromethyl-propyl]-3-methyl-3H-benzooxazol-2-one]
1.7 | COC(=O)c1ccc(-c2ccc([C@@H](C)[C@@](O)(c3ccc4oc(=O)n(C)c4c3)C(F)(F)F)c(C(F)(F)F)c2)cc1F (relative stereo) [Example 198, 3-Fluoro-4′-[3,3,3-trifluoro-2-hydroxy-1-methyl-2-(3-methyl-2-oxo-2,3-dihydro-benzooxazol-5-yl)-propyl]-3′-trifluoromethyl-biphenyl-4-carboxylic acid methyl ester]
2.1 | COC(=O)c1ccc(Oc2ccc([C@@H](C)[C@@](O)(c3ccc4oc(=O)n(C)c4c3)C(F)(F)F)c(Cl)c2)nn1 (relative stereo) [Example 199, 6-{3-Chloro-4-[3,3,3-trifluoro-2-hydroxy-1-methyl-2-(3-methyl-2-oxo-2,3-dihydro-benzooxazol-5-yl)-propyl]-phenoxy}-pyridazine-3-carboxylic acid methyl ester]
3.9 | C[C@H](c1ccc(Oc2ccc(C(=O)O)nn2)cc1Cl)[C@@](O)(c1ccc2oc(=O)n(C)c2c1)C(F)(F)F (relative stereo) [Example 201, 6-{3-Chloro-4-[3,3,3-trifluoro-2-hydroxy-1-methyl-2-(3-methyl-2-oxo-2,3-dihydro-benzooxazol-5-yl)-propyl]-phenoxy}-pyridazine-3-carboxylic acid]
1.8 | COC(=O)c1cnc(Oc2ccc([C@@H](C)[C@@](O)(c3ccc4oc(=O)n(C)c4c3)C(F)(F)F)c(Cl)c2)nc1 (relative stereo) [Example 202, 2-{3-Chloro-4-[3,3,3-trifluoro-2-hydroxy-1-methyl-2-(3-methyl-2-oxo-2,3-dihydro-benzooxazol-5-yl)-propyl]-phenoxy}-pyrimidine-5-carboxylic acid methyl ester]
1.8 | C[C@H](c1ccc(Oc2ncc(C(=O)O)cn2)cc1Cl)[C@@](O)(c1ccc2oc(=O)n(C)c2c1)C(F)(F)F (relative stereo) [Example 203, 2-{3-Chloro-4-[3,3,3-trifluoro-2-hydroxy-1-methyl-2-(3-methyl-2-oxo-2,3-dihydro-benzooxazol-5-yl)-propyl]-phenoxy}-pyrimidine-5-carboxylic acid]
60.2 | COC(=O)c1ccc(Oc2ccc([C@@H](C)[C@@](O)(c3ccc4c(c3)N(C)C(=O)CO4)C(F)(F)F)c(Cl)c2)cc1Cl (single isomer, unassigned) [Example 216]
1 | COC(=O)c1ccc(Oc2ccc([C@H](C)[C@](O)(c3ccc4c(c3)N(C)C(=O)CO4)C(F)(F)F)c(Cl)c2)cc1Cl (single isomer, unassigned) [Example 217]
1.6 | COC(=O)c1cnc(Oc2ccc([C@H](C)[C@](O)(c3ccc4c(c3)N(C)C(=O)CO4)C(F)(F)F)c(Cl)c2)c(Cl)c1 (single isomer, unassigned) [Example 222]
9.7 | CCOC(=O)c1ccc(COc2ccc(Cl)c([C@H](C)[C@](O)(c3ccc4c(c3)N(C)C(=O)CO4)C(F)(F)F)c2)cc1 (stereo in doubt) [Example 1, 4-{4-Chloro-3-[3,3,3-trifluoro-2-hydroxy-1-methyl-2-(4-methyl-3-oxo-3,4-dihydro-2H-benzo[1,4]oxazin-6-yl)-propyl]-phenoxymethyl}-benzoic acid ethyl ester]
